“And” between values parts separate entries of the source, which are not always exact repeats. Equal entries are not always repeated. One block for each molecule: values may come before it.
Key:
WT mice = assay: Intestinal RI model in wild type mice (histopathology, immunohistochemistry); type: in vivo, mouse; conditions: peptide i.v. five minutes prior to reperfusion
Method: (§1) Surgical protocol for RI was performed as previously described (Zhang et al. (2004) PNAS USA 101:3886-91). […] After 40 minutes of ischemia, the microclip was removed, and reperfusion of the mesenteric vasculature was confirmed by the return of pulsation to the vascular arcade and a change to pink color. The incision was closed, and all animals kept warm for 3 hours. Reconstituted RAG-1^−/− animals received either IgM mixed with peptide or saline in 0.2 ml volume intravenously 30 min before the initial laparotomy. WT animals were treated with saline or peptide i.v. 5 minutes prior to reperfusion. At the end of reperfusion, the ischemic segment of the jejunum was harvested and the central 4 cm was cut for pathological analysis.
(§2) Cryostat sections of intestinal tissues were stained by hematoxylin and eosin (H&E) and examined by light microscopy for mucosal damage. Pathology score was assessed based on procedure by Chiu (Chiu et al, Arch Surg 101: 484-488, 1970; Chiu, et al, Arch Surg 101: 478-483, 1970) that included direct inspection of all microvilli over a 4 cm stretch of jejuneum as described. Zhang et al. (2004) PNAS USA 101:3886-91. For immuno-fluorescence, cryosections fixed with 4% (w/v) paraformaldehyde were incubated for varying periods with either biotin-labeled anti-mouse IgM (Becton Dickinson, Calif.) followed by 1 hour with streptavidin-Alexa-568 (1:500 dilution, Molecular Probes, Oreg.). C4 deposition was detected by staining with FITC-labeled rabbit anti-huC4c (DAKO, Colo.), followed by anti-rabbit-Alexa 488 (Molecular Probes, Oreg.). The specificity of anti-C4c staining was confirmed by staining serial sections with biotin-labeled anti-mouse C4 for 1 hour followed by streptavidin-FITC (Becton Dickinson, Calif.). C3 deposition was detected by treating with FITC-labeled anti-C3 (DAKO, Colo.). Sections were mounted in Anti-fade Mounting Medium with DAPI (Molecular Probes, Oreg.).

IgM^CM-22 [1] = assay: ELISA screening of M-13 phage clones on IgM^CM-22-coated plate; type: binding, mouse; conditions: five phage clones compared, ELISA (FIG. 6A)
From the text: FIG. 6A is a graph showing the ELISA screening of M-13 phage-display library for IgM^CM-22-specific peptides. Symbols: […]-P1 clone; X-P2 clone, ∘-P7 clone; ⋄-P8 clone. The plate was coated with a solution of IgM^CM-22 before addition of varying concentrations of phage-clones. The results are representative of at least three independent experiments.
A 12-mer M-13 phage display library (New England Biolab, Mass.) was screened by 4 rounds with MBL-beads coated with IgM^CM-22 and 2 rounds with IgM^CM-75 according to the manufacturer's recommendation. Phage clones were selected from the enriched pool and the nucleotide sequence of the relevant phage gene determined for at least ten clones. […]
ELISA was performed as described earlier (Zhang et al. (2004) PNAS USA 101:3886-91). Briefly, IgM binding to phage or phage-specific peptides was determined by coating a 96-well plate with saturating amounts of antigen. […] Binding of IgM to NMHC-II was determined by culturing 96-well plates previously coated with specific rabbit antibody (NMHC-II A & B; Covance Research Products; NMHC-II C a gift from Dr. Adelstein, NHLBI, NIH, Bethesda, Md.) or pan-myosin Hc (Sigma, Mo.) with intestinal lysates prepared from IgM^CM-22 reconstituted RAG-1^−/− mice either sham treated or treated for ischemia as described (Zhang et al. (2004) PNAS USA 101:3886-91). […]

RAG-1^−/− mice [2] = assay: Intestinal RI model in reconstituted RAG-1^−/− mice (histopathology, immunohistochemistry); type: in vivo, mouse; conditions: for mean pathology score: 40 min ischemia, 3 h reperfusion
Method: as §1, §2

IgM^CM-22 [3] = assay: ELISA: synthetic peptide P8 inhibits IgM^CM-22 binding of phage clone P8; parameters: species or system mouse; conditions: peptide added to IgM^CM-22-coated plate prior to 5×10^11 PFU phage; estimated; read-out: concentration of P8 peptide yielding 50% inhibition of phage P8 binding to IgM^CM-22
Method: FIG. 6B is a bar graph showing that the synthetic peptide P8 inhibits IgM^CM-22 binding of phage clone P8. ELISA was performed with varying concentrations of the synthetic peptide P8 added to the IgM^CM-22-coated plate prior to the addition of 5×10^11 PFU phage. The results are representative of at least three independent experiments.
(§3) ELISA was performed as described earlier (Zhang et al. (2004) PNAS USA 101:3886-91). Briefly, IgM binding to phage or phage-specific peptides was determined by coating a 96-well plate with saturating amounts of antigen. Subsequent to blocking, IgM was added (1 or 10 μg/ml) for 2 hr at 37° C. Plates were washed and then developed with alkaline phosphatase-labeled goat anti-mouse IgM (Sigma, MO). Binding of IgM to NMHC-II was determined by culturing 96-well plates previously coated with specific rabbit antibody (NMHC-II A & B; Covance Research Products; NMHC-II C a gift from Dr. Adelstein, NHLBI, NIH, Bethesda, Md.) or pan-myosin Hc (Sigma, Mo.) with intestinal lysates prepared from IgM^CM-22 reconstituted RAG-1^−/− mice either sham treated or treated for ischemia as described (Zhang et al. (2004) PNAS USA 101:3886-91). Lysates were prepared as described for immune precipitation (see below). Alkaline-phosphatase labeled goat anti-mouse IgM (Sigma, Mo.) was then used to detect bound IgM. […]

IgM^CM-22 [4] = assay: Titration of peptide with IgM^CM-22; parameters: species or system mouse; conditions: previous titration of peptide with IgM^CM-22
IgM^CM-31 = assay: SPR analysis of peptide binding to control IgM^CM-31-coupled surface; parameters: species or system mouse; conditions: peptide injected at 120 μM
Method: FIG. 9D is a graph showing the binding isotherm for the injection of the self-peptide N2 at 120 μM over a surface coupled with the control IgM^CM-31.
(§4) An IgM (IgM^CM-22 or IgM^CM-31) antibody was immobilized by amine coupling in a BiaCore SPR CM5™ chip flowcell at a density of 33,400 response units (RU) ˜33 ng/mm^2 as described. Vorup-Jensen et al, PNAS USA 100: 1873-1878, 2003. Briefly, a reference flow cell was prepared by coupling of ethanolamine-HCl. Peptides, diluted in PBS running buffer, were flowed separately over the IgM-coupled surface and the reference at a rate of 10 μl/min at 25° C. and with the data collection rate at 10 Hz. […] Binding isotherms were derived by subtracting the response in the reference cell from the response of the IgM-coupled surface. Following each run, the surface was regenerated by injecting 40 μl 0.05% (v/v) polyoxyethylenesorbitan monolaureate/PBS.

IgM^CM-22 [5] = assay: SPR analysis of peptide binding to IgM^CM-22-coupled surface; parameters: species or system mouse; conditions: calculated from steady-state response levels, 1:1 Langmuir fit; mean±SD, n=2; 25° C.
Method: FIG. 9A is a graph showing the surface plasmon resonance for the self-peptide N2. Binding isotherms for samples of the self-peptide N2 with concentration from 10.5 μM to 120 μM injected over the IgM^CM-22-coupled surface.
FIG. 9B is a graph showing the surface plasmon resonance for a control peptide. Binding isotherm for a same-length, random-sequence control peptide (AGCMPYVRIPTA; SEQ ID NO: 62), injected at a concentration of 117 μM over the IgM^CM-22-coupled surface.
as §4

P8 peptide = assay: ELISA: IgM binding to P8 peptide-coated plates; conditions: plate coated with 50 μg/ml P8
Method: FIG. 6C is a bar graph showing specific binding of the P8 peptide to IgM^CM-22. The ELISA plates were coated with 50 μg/ml solution of P8 peptide, followed by addition of IgM^CM-22 or IgM^CM-75 at 1 or 10 μg/ml. IgM binding was detected with a biotinylated rat anti-mouse IgM followed by streptavidin-phosphatase and color reaction. The results are representative of at least three independent experiments.
as §3

[6] = system: antibody deficient mice (RAG-1); assay: Intestinal I/R injury in antibody-deficient (RAG-1) mice reconstituted with hybridoma IgM; type: in vivo, mouse; conditions: IgM injected intravenously 30 minutes before initial laparotomy, permeability index (FIG. 4)
Method: IgM or saline was injected intravenously 30 minutes before initial laparotomy. At the end of reperfusion, blood is obtained and permeability index is calculated as the ratio of ^125I counts of dried intestine versus that of blood. Values represent means±standard error; n equals the numbers of mice used in experimental groups. 1=WT plus normal saline; 2=RAG plus normal saline; 3=RAG plus IgM hybridoma CM-22; 4=WT sham control.
This finding was unexpected because they have a normal level of IgM in their blood. These findings led to the hypothesis that a special population of B cells termed B-1 cells are responsible for secreting the pathogenic IgM. […] To identify the specific antibody or antibodies responsible for injury, a panel of hybridoma clones were constructed from an enriched pool of peritoneal B-1 cells harvested from normal mice. The general approach for preparing hybridomas from enriched fraction of peritoneal cells includes harvesting peritoneal cells from mice treated 7 days earlier with IL-10 and subsequently enriched for CD23 negative B cells by negative selection with magnetic beads. Enriched B cells are analyzed by FACS following staining with IgM, Mac-1 and CD23 specific Mab. […]
Twenty-two IgM-secreting hybridoma clones were analyzed by pooling an equal amount of IgM product from each of the clones. […]

[7] = system: non-muscle myosin heavy chain-II (NMHC-II) isoforms A, B and C; assay: ELISA: IgM binding to captured NMHC-II from intestinal lysates; parameters: species or system mouse; conditions: NMHC captured from jejuneum lysates of RAG-1^−/− mice
From the text: FIG. 8B is a series of graphs showing results of in vitro binding assays of IgM^CM-22 to the isoforms of non-muscle myosin heavy chain-II (NMHC-II). ELISA plates were coated with monoclonal antibodies for 3 different isoforms of NMHC-II (upper left: isoform A, upper right: isoform B, lower left: isoform C and lower right: anti-pan myosin antibody). Bound myosin heavy chain from intestinal lysates was detected by IgM^CM-22 or IgM^CM-31. The results represent mean±standard error of OD 405 nm units and are representative of triplicate samples.
as §3, with “101:3886-91).” for “101:3886-91). Lysates were prepared as described for immune precipitation (see below). Alkaline-phosphatase labeled goat anti-mouse IgM (Sigma, Mo.) was then used to detect bound IgM.”

RAG-1^−/− mice [8] = conditions: IgM-reconstituted sham controls (no ischemia); Zhang et al. (2004); cited from earlier work
[9] = peptide mixed with IgM^CM-22 prior to injection in RAG-1^−/− mice

relative binding of phage clone to IgM^CM-22 (IgM^CM-22 [1]): bound with the highest efficiency
IC50 (IgM^CM-22 [3]): ~10 µM
Molecule: NGNNVNGNRNNN [P8]
IgM and complement deposition in reperfused tissues (immunohistology) (WT mice): no apparent deposits of IgM or complement
mean pathology score (WT mice): 5.+−.3
IgM and complement deposition in reperfused jejuneum (immunohistology) (RAG-1^−/− mice [2]; [9]): no evidence of IgM or complement binding
mean pathology score (RAG-1^−/− mice [2]; [9]): 6±3
optimal concentration sufficient to block 50-100 μg of IgM^CM-22 (0.1-0.2 μM) (IgM^CM-22 [4]): 10 µM

SPR binding to IgM^CM-31-coupled surface (IgM^CM-31): no binding was observed
Kd (IgM^CM-22 [5]): 123 ± 61 µM
Molecule: LMKNMDPLNDNV [N2]
IgM and complement deposition in reperfused tissues (immunohistology) (WT mice): blocked
mean pathology score (WT mice): 8±5
IgM and complement deposition in reperfused jejuneum (immunohistology) (RAG-1^−/− mice [2]; [9]): no deposition of IgM and complement
mean pathology score (RAG-1^−/− mice [2]; [9]): 13±8

IgM binding to P8 peptide-coated plate (P8 peptide; IgM at 1 μg/ml): neither IgM bound above background
IgM binding to P8 peptide-coated plate (P8 peptide; IgM at 10 μg/ml): significantly more
binding of IgM to all three isoforms of NMHC-II (ELISA) [7]: Above background binding
B1: IgM^CM-22: natural IgM produced from hybridoma PTA-3507; heavy chain SEQ ID NO: 2, light chain SEQ ID NO: 8 (antibody, listed as Mus musculus)
heavy: QVQLQQSGAELVKPGASVKISCKASGYAFSSYWMNWVKQRPGKGLEWIGQIYPGDGDTNYNGKFKGKATLTADKSSSTAYMQLSSLTSEDSAVYFCAREDYYGSDWYFDVWGTGTTVTVSSGKLAFFFLHIPF
light: IVMTQSAASLAVSLGQRATISYRASKSVSTSGYSYMHWNQQKPGQPPRLLIYLVSNLESGVPARFSGSGSGTDFTLNIHPVEEEDAATYYCQHIRELTRSEGGPSWK
IgM and complement C4 and C3 deposition in reperfused jejuneum (immunohistology) (RAG-1^−/− mice [2]; RAG-1^−/− mice reconstituted with the IgM alone, following RI): co-localization of IgM and complement C4 and C3 within the microvilli
mean pathology score (RAG-1^−/− mice [2]; RAG-1^−/− mice reconstituted with the antibody alone): 31±13 and 31±10
restoration of I/R injury [6]: restored injury
IgM and complement deposition (immunohistology) (RAG-1^−/− mice [8]): No binding of IgM or complement

— US7442783B2, “Natural IgM antibodies and inhibitors thereof” (The CBR Institute for Biomedical Research, Inc., priority 2004, dated 2008)
